The values below come from PMC11941218, “Juglone-Bearing Thiopyrano[2,3-d]thiazoles Induce Apoptosis in Colorectal Adenocarcinoma Cells” (Cells, 2025).

Where only a bound is given, the exact number is not on record here.

One assay relates to Human blood lymphocytes. Briefly: MTT assay. The assay is classed as cell-based. As to conditions: for IC50: Lymphocyte, human blood lymphocytes, 72 h, M ± SD, n = 3; for decrease of viability compared to control cells: lymphocytes from a healthy donor, 100 µM. As to the method: Lymphocytes from human peripheral blood were isolated with sodium heparin (10 U/mL) as an anticoagulant. Isolation was performed through a density gradient method with the Gradisol G, following a modified procedure. Peripheral blood was mixed with Gradisol G in equal proportions (1:1) and centrifuged at 400× g for 30 min at room temperature. The cells were collected, washed in phosphate-buffered saline (PBS), and treated with a hypotonic solution to remove residual erythrocytes. Lymphocytes were activated by phytohemagglutinin-L (1 µg/mL) and cultured in RPMI-1640 medium supplemented with 20% fetal bovine serum under controlled conditions of 95% air and 5% CO2 [27].
(§1) The metabolic activity of cells exposed to the tested derivatives, doxorubicin, and DMSO, was assessed using an MTT assay according to the manufacturer’s protocol (Sigma-Aldrich, St. Louis, MO, USA). Adherent cells were seeded into 96-well plates (5000–10,000 cells in 100 µL of growth medium per well) and allowed to adhere overnight before treatment. For lymphocytes, activation with phytohemagglutinin-L (1 µg/mL) was performed for 24 h, after which they were seeded in 96-well plates at a density of 100,000 cells/well in RPMI-1640 medium supplemented with 20% FBS. The test substances, including Les-6547, Les-6557, and doxorubicin, were added to 100 µL of culture medium to achieve final concentrations of 0 µM, 0.1 µM, 1 µM, 2.5 µM, 10 µM, and 100 µM for all compounds, and the cells were further incubated for 24, 48, or 72 h. DMSO-treated cells served as the control. Then, 20 µL of MTT solution (5 mg/mL) was added and incubated for 2–4 h to allow formazan crystal formation. The formazan crystals were then solubilized by adding DMSO. The absorbance of formazan was measured at 570 nm using a ThermoScientific Evolution 201 UV-VIS spectrophotometer (ThermoFisher Scientific, Waltham, MA, USA). The control condition with 0.5% DMSO was considered 100% viability. The IC50 values for the compounds were determined using GraphPad Prism 8 and 9 software (GraphPad Software, Boston, MA, USA).
Background: Tetrazolium assays rely on reduction of a dye to a coloured formazan, in cell work by metabolically active cells.

Assay [1] has as its system HT-29 colorectal adenocarcinoma cells. Kind of assay: MTT assay. The assay is classed as cell-based. As to conditions: Homo sapiens. As to the method: (§2) DLD-1, HaCaT, and Balb/c 3T3 cells were maintained in DMEM, while HT-29 cells were grown in McCoy’s 5A medium with 10% FBS and 1% penicillin/streptomycin. All cell lines were incubated at 37 °C in a humidified atmosphere with 5% CO2. After detaching the cells with trypsin, they were quantified using a Scepter 3.0 automated cell counter (Millipore, Burlington, MA, USA).
as §1

The test system of assay [2] is Balb/c 3T3 (mouse fibroblasts). Briefly: MTT assay. The assay is classed as cell-based. As to conditions: BALB/c3T3, Balb/c 3T3, MTT, 72 h, M ± SD, n = 3. How it is done: as §2, §1
For assay [3], the system named is HaCaT (human keratinocytes). Briefly: MTT assay. As to conditions: 72 h, M ± SD, n = 3. The assay is classed as cell-based. As to the method:
as §2, §1

Assay [4] concerns HT-29 colorectal adenocarcinoma cells. Kind of assay: Apoptosis assay, FITC-Annexin V/propidium iodide flow cytometry. It is filed as cell-based, human. As to conditions: HT-29, 24 h; Les-6547 5 μM, Les-6557 10 μM. As to the method: The pro-apoptotic effects of the tested compounds were assessed using the FITC Annexin V Apoptosis Detection Kit II in conjunction with a BD FACSCanto II flow cytometer (BD Biosciences, San Jose, CA, USA). The experimental procedure adhered to the manufacturer’s instructions and previously established protocols.
Initially, HT-29 cells were seeded in 6-well plates at a density of 300,000 cells per well in 2 mL of culture medium and incubated overnight to allow adherence. Subsequently, the cells were treated with Les-6547 (5 µM) and Les-6557 (10 µM) for 24 h. After exposure to the compounds, the cells were rinsed twice with cold PBS and suspended in the binding buffer provided in the kit. FITC Annexin V and propidium iodide (PI) were added to the 100 µL cell suspension, followed by 15-min incubation at room temperature, shielded from light.
After the incubation, 300 µL of binding buffer was added to each sample, and analysis was performed using the flow cytometer, with 10,000 events recorded per sample. Data were processed using FACSDiva software (version 6.1.3, BD Biosciences, San Jose, CA, USA). Calibration of the instrument was ensured using a BD Cytometer Setup and Tracking Beads (BD Biosciences, San Diego, CA, USA).
In general terms: A flow cytometer gives signals particle by particle.

Assay [5] has the same test system. Briefly: [^3H]-thymidine incorporation assay (DNA biosynthesis). As to conditions: Homo sapiens; HT-29, 24 h, M ± SD, n = 3. The assay is classed as cell-based. As to the method:
(§3) The anti-proliferative potential of Les-6547 and Les-6557 was analyzed using a clonogenic assay and incorporation of radioactive [^3H]-thymidine into the DNA of colorectal adenocarcinoma HT-29 and DLD-1 cell lines after 24 h of incubation with various concentrations of the tested agents.
(§4) Next, we examined the effects of the tested compounds on the proliferative activity of human colorectal adenocarcinoma cells by assessing their ability to influence DNA biosynthesis using the thymidine incorporation assay (Figure 6, Table 8). Les-6547 decreased DNA biosynthesis in DLD-1 cells to 50% at a concentration of 2.19 ± 0.39 µM.
Background: Incorporation of labelled thymidine or its analogues reports DNA synthesis.

The test system of assay [6] is DLD-1 colorectal adenocarcinoma cells. The description is as above. As to conditions: Homo sapiens; DLD-1, 24 h, M ± SD, n = 3. It is filed as cell-based. How it is done:
as §3, §4

The next assay relates to caspase 10. Briefly: Caspase 10 activity assay (FAM-FLICA, flow cytometry) in HT-29 cells. It is filed as cell-based, human. To be noted: HT-29, 24 h; Les-6547 5 μM, Les-6557 10 μM. As to the method:
Caspase activity for initiator caspases (8, 9, and 10) and executioner caspases (3/7) was evaluated using a FAM-FLICA® Caspase Assay kit (ImmunoChemistry Technologies, Bloomington, MN, USA) according to the manufacturer’s instructions, as described in previous studies. HT-29 cells were exposed to Les-6547 (5 µM) and Les-6557 (10 µM) for 24 h. Following this, the cells were harvested, washed twice with cold PBS, and resuspended in Apoptosis Wash Buffer (ImmunoChemistry Technologies, Bloomington, MN, USA) at a final concentration of 5 × 10^5 cells/mL.
Subsequently, 290 µL of the cell suspension was transferred into individual tubes, to which 10 µL of freshly prepared FLICA solution (1:5 dilution in PBS) was added. The mixture was gently pipetted and incubated for 1 h at 37 °C in the dark. After the incubation, the cells were washed twice with 2 mL of Apoptosis Wash Buffer, centrifuged, and resuspended in 300 µL of the same buffer. The prepared samples were immediately analyzed using a BD FACSCanto II flow cytometer (10,000 events). Data were processed using FACSDiva 6.1.3 software (BD Biosciences Systems, San Jose, CA, USA). Flow cytometer calibration was conducted using a BD Cytometer Setup and Tracking Beads (BD Biosciences, San Diego, CA, USA).

Setting [7] is: HT-29, MTT, 24, 48 and 72 h, read-out: IC50 (range over incubation times).
Setting [8] is: HT-29, MTT, 24 h, M ± SD, n = 3, read-out: IC50.
The mark [9] stands for this setting: HT-29, MTT, 48 h, M ± SD, n = 3, read-out: IC50.
Setting [10] is: HT-29, MTT, 72 h, M ± SD, n = 3, read-out: IC50.

As usually defined, the IC50 is the concentration that inhibits the measured activity by half. Take `O=C1C2=C(C(=O)c3c(O)cccc31)C(c1cc(Cl)ccc1O)c1sc(=O)[nH]c1S2` (centres unmarked) [Les-6547]: the IC50 in the assay on Human blood lymphocytes is > 100 µM; in assay [1] (setting [7]), 4.29 to 5.72 µM; in assay [1] (setting [8]), 5.72 ± 0.41 µM; in assay [1] (setting [9]), 4.29 ± 0.5 µM; in assay [1] (setting [10]), 4.44 ± 0.35 µM; in assay [2], 31.7 ± 0.41 µM. The IC50 was determined as 89.64 ± 0.84 µM in assay [3], 2.21 ± 0.39 µM in assay [5] and 2.19 ± 0.39 µM in assay [6]. The “decrease of viability compared to control cells” value in the assay on Human blood lymphocytes is given as 25%. The “apoptotic cells (sum of early and late apoptotic cells)” value in assay [4] is reported as 36.2%.
As to `O=C1C2=C(C(=O)c3c(O)cccc31)C(c1ccc(Cl)cc1)c1sc(=O)[nH]c1S2` (centres unmarked) [Les-6557], the IC50 is > 100 µM in the assay on Human blood lymphocytes; 6.54 to 10.4 µM in assay [1] (setting [7]); 10.4 ± 0.23 µM in assay [1] (setting [8]); 6.54 ± 0.07 µM in assay [1] (setting [9]); 9.78 ± 0.03 µM in assay [1] (setting [10]); 40.26 ± 0.35 µM in assay [2]. For the same compound, the half-inhibitory concentration (IC50) in assay [3] came out at 68.37 ± 0.57 µM; in assay [5], 2.91 ± 0.38 µM; in assay [6], 4.65 ± 0.02 µM. In addition, in the assay with Human blood lymphocytes, the “decrease of viability compared to control cells” value is given as 25%. Further, the “apoptotic cells (sum of early and late apoptotic cells)” value in assay [4] stood at 31.9%. Further, in the assay with caspase 10, the “Cells with active caspase 10” value was found to be 40.9%.
